In patent publication US9695155B2, “Herbicidal substituted pyrimidinyloxy benzene compounds” (E. I. DU PONT DE NEMOURS AND COMPANY, priority 2013, dated 2017):

Experiments:
Italian ryegrass = assay: Test A postemergence; format: in vivo, Lolium multiflorum
Summary of the method: (§1)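 Injury scores run from 0, no effect, to 100, complete control, judged by eye against untreated plants roughly 10 days after treatment. Chemicals carried a surfactant in a non-phytotoxic solvent and went onto loam–sand soil preemergence or onto one- to two-leaf seedlings postemergence.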

kochia [1] = assay: Test A postemergence; format: in vivo, Kochia scoparia
Summary of the method: as §1

morningglory = assay: Test C preemergence; format: in vivo, Ipomoea coccinea; conditions: Ipomoea, pre-emergence, preemergence, read-out: Morningglory plant response rating
Summary of the method: (§2)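 Visual injury score versus untreated controls, 0 = no effect, 100 = complete control, taken 13 to 15 days after treatment in the greenhouse. Pre-emergence pots held loam/sand; post-emergence plants grew in sphagnum peat/vermiculite mix and were sprayed at the 1- to 4-leaf stage.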

blackgrass [2] = assay: Test A postemergence; format: in vivo, Alopecurus myosuroides
Summary of the method: as §1

pigweed = assay: Test C preemergence; format: in vivo, Amaranthus retroflexus; conditions: Amaranthus retroflexus, pre-emergence, preemergence, read-out: Pigweed plant response rating
Summary of the method: as §2

galium [3] = assay: Test C preemergence; format: in vivo, Galium aparine; conditions: Galium, pre-emergence
Summary of the method: as §2

barnyardgrass = assay: Test C preemergence; format: in vivo, Echinochloa crus-galli; conditions: Echinochloa crus-galli, pre-emergence
Summary of the method: as §2

large (Lg) crabgrass = assay: Test C preemergence; format: in vivo, Digitaria sanguinalis; conditions: Digitaria sanguinalis, pre-emergence
Summary of the method: as §2

blackgrass [4] = assay: Test C preemergence; format: in vivo, Alopecurus myosuroides; conditions: Alopecurus myosuroides, pre-emergence
Summary of the method: as §2

kochia [5] = assay: Test A preemergence; format: in vivo, Kochia scoparia; conditions: 0 to 100 scale where 0 is no effect and 100 is complete control
Summary of the method: as §1

giant foxtail = assay: Test C preemergence; format: in vivo, Setaria faberii; conditions: Setaria faberi, pre-emergence
Summary of the method: as §2

waterhemp = assay: Test C preemergence; format: in vivo, Amaranthus rudis; conditions: Amaranthus tuberculatus, pre-emergence, preemergence, read-out: Waterhemp plant response rating
Summary of the method: as §2

soybean = assay: Test C preemergence; format: in vivo, Glycine max; conditions: Glycine max, pre-emergence, preemergence, read-out: Soybean plant response rating
Summary of the method: as §2

oilseed rape = assay: Test C preemergence; format: in vivo, Brassica napus; conditions: Brassica napus, pre-emergence, preemergence, read-out: Oilseed Rape plant response rating
Summary of the method: as §2

galium [6] = assay: Test A postemergence; format: in vivo, Galium aparine
Summary of the method: as §1

lambsquarters = assay: Test C preemergence; format: in vivo, Chenopodium album; conditions: Chenopodium album, pre-emergence, preemergence, read-out: Lambsquarters plant response rating
Summary of the method: as §2

velvetleaf = assay: Test C preemergence; format: in vivo, Abutilon theophrasti; conditions: Abutilon theophrasti, pre-emergence, preemergence, read-out: Velvetleaf plant response rating
Summary of the method: as §2

ragweed = assay: Test C preemergence; format: in vivo, Ambrosia elatior; conditions: Ambrosia artemisiifolia, pre-emergence, preemergence, read-out: Ragweed plant response rating
Summary of the method: as §2

[7] = 31 g ai/ha, 0 to 100 scale, 0 no effect, 100 complete control
[8] = 125 g ai/ha, 0 to 100 scale where 0 is no effect and 100 is complete control
[9] = 16 g ai/ha, scale 0 to 100 (0 no effect, 100 complete control)
[10] = 62 g ai/ha, scale 0 (no effect) to 100 (complete control)
[11] = 125 g ai/ha, scale 0 (no effect) to 100 (complete control)

Fc1cccc(Oc2ncc(Cl)cn2)c1-n1cc(C(F)F)nn1 [Compound 141, 5-chloro-2-[2-[4-(difluoromethyl)-1H-1,2,3-triazol-1-yl]-3-fluorophenoxy]pyrimidine]
Plant response rating, Ryegrass, Italian (Italian ryegrass; [7]): 60
Ryegrass, Italian plant response rating (Italian ryegrass; [8]): 80
Plant response rating, Kochia (kochia [1]; [7]): 100
Kochia plant response rating (kochia [1]; [8]): 100
pest or weed control at 16 g/ha (morningglory; [9]): 75%
pest or weed control at 62 g/ha (morningglory; [10]): 100%
pest or weed control at 125 g/ha (morningglory; [11]): 100%
Plant response rating, Blackgrass (blackgrass [2]; [7]): 90
Blackgrass plant response rating (blackgrass [2]; [8]): 100
pest or weed control at 16 g/ha (pigweed; [9]): 100%
pest or weed control at 62 g/ha (pigweed; [10]): 100%
pest or weed control at 125 g/ha (pigweed; [11]): 100%
pest or weed control at 16 g/ha (galium [3]; 16 g ai/ha, preemergence, scale 0 to 100 (0 no effect, 100 complete control), read-out: Galium plant response rating): 98%
pest or weed control at 62 g/ha (galium [3]; 62 g ai/ha, preemergence, scale 0 (no effect) to 100 (complete control), read-out: Galium plant response rating): 100%
pest or weed control at 125 g/ha (galium [3]; 125 g ai/ha, preemergence, scale 0 (no effect) to 100 (complete control), read-out: Galium plant response rating): 100%
pest or weed control at 31 g/ha (galium [3]; Preemergence, 31 g ai/ha, scale 0 to 100, 0 no effect, 100 complete control, read-out: Plant response rating, Galium): 98%
pest or weed control at 16 g/ha (barnyardgrass; 16 g ai/ha, preemergence, scale 0 to 100 (0 no effect, 100 complete control), read-out: Barnyardgrass plant response rating): 80%
pest or weed control at 62 g/ha (barnyardgrass; 62 g ai/ha, preemergence, scale 0 (no effect) to 100 (complete control), read-out: Barnyardgrass plant response rating): 100%
pest or weed control at 125 g/ha (barnyardgrass; 125 g ai/ha, preemergence, scale 0 (no effect) to 100 (complete control), read-out: Barnyardgrass plant response rating): 100%
pest or weed control at 31 g/ha (barnyardgrass; Preemergence, 31 g ai/ha, scale 0 to 100, 0 no effect, 100 complete control, read-out: Plant response rating, Barnyardgrass): 100%
pest or weed control at 16 g/ha (large (Lg) crabgrass; 16 g ai/ha, preemergence, scale 0 to 100 (0 no effect, 100 complete control), read-out: Crabgrass, Large plant response rating): 100%
pest or weed control at 62 g/ha (large (Lg) crabgrass; 62 g ai/ha, preemergence, scale 0 (no effect) to 100 (complete control), read-out: Crabgrass, Large plant response rating): 100%
pest or weed control at 125 g/ha (large (Lg) crabgrass; 125 g ai/ha, preemergence, scale 0 (no effect) to 100 (complete control), read-out: Crabgrass, Large plant response rating): 100%
pest or weed control at 31 g/ha (large (Lg) crabgrass; Preemergence, 31 g ai/ha, scale 0 to 100, 0 no effect, 100 complete control, read-out: Plant response rating, Crabgrass, Large): 100%
pest or weed control at 16 g/ha (blackgrass [4]; 16 g ai/ha, preemergence, scale 0 to 100 (0 no effect, 100 complete control), read-out: Blackgrass plant response rating): 80%
pest or weed control at 62 g/ha (blackgrass [4]; 62 g ai/ha, preemergence, scale 0 (no effect) to 100 (complete control), read-out: Blackgrass plant response rating): 95%
pest or weed control at 125 g/ha (blackgrass [4]; 125 g ai/ha, preemergence, scale 0 (no effect) to 100 (complete control), read-out: Blackgrass plant response rating): 95%
pest or weed control at 31 g/ha (blackgrass [4]; Preemergence, 31 g ai/ha, scale 0 to 100, 0 no effect, 100 complete control, read-out: Plant response rating, Blackgrass): 95%
Plant response rating, Kochia (kochia [5]; 31 g ai/ha, visual, approximately 10 days): 100
Plant response rating, Kochia (kochia [5]; 125 g ai/ha): 100
pest or weed control at 16 g/ha (giant foxtail; 16 g ai/ha, preemergence, scale 0 to 100 (0 no effect, 100 complete control), read-out: Foxtail, Giant plant response rating): 90%
pest or weed control at 62 g/ha (giant foxtail; 62 g ai/ha, preemergence, scale 0 (no effect) to 100 (complete control), read-out: Foxtail, Giant plant response rating): 100%
pest or weed control at 125 g/ha (giant foxtail; 125 g ai/ha, preemergence, scale 0 (no effect) to 100 (complete control), read-out: Foxtail, Giant plant response rating): 100%
pest or weed control at 31 g/ha (giant foxtail; Preemergence, 31 g ai/ha, scale 0 to 100, 0 no effect, 100 complete control, read-out: Plant response rating, Foxtail, Giant): 100%
pest or weed control at 16 g/ha (waterhemp; [9]): 100%
pest or weed control at 62 g/ha (waterhemp; [10]): 100%
pest or weed control at 125 g/ha (waterhemp; [11]): 100%
plant injury at 16 g/ha (soybean; [9]): 65%
plant injury at 62 g/ha (soybean; [10]): 90%
plant injury at 125 g/ha (soybean; [11]): 98%
plant injury at 16 g/ha (oilseed rape; [9]): 100%
plant injury at 62 g/ha (oilseed rape; [10]): 100%
plant injury at 125 g/ha (oilseed rape; [11]): 100%
Plant response rating, Galium (galium [6]; [7]): 100
Galium plant response rating (galium [6]; [8]): 100
pest or weed control at 16 g/ha (lambsquarters; [9]): 85%
pest or weed control at 62 g/ha (lambsquarters; [10]): 100%
pest or weed control at 125 g/ha (lambsquarters; [11]): 100%
pest or weed control at 16 g/ha (velvetleaf; [9]): 100%
pest or weed control at 62 g/ha (velvetleaf; [10]): 100%
pest or weed control at 125 g/ha (velvetleaf; [11]): 100%
pest or weed control at 16 g/ha (ragweed; [9]): 85%
pest or weed control at 62 g/ha (ragweed; [10]): 100%
pest or weed control at 125 g/ha (ragweed; [11]): 100%
